This is an account of results in PubChem BioAssay AID192 (DTP/NCI, 2004).

“And” between values parts separate entries of the source, which are not always exact repeats. Identical values can stand only once. Toxic doses and inconclusive results are not listed.

In this experiment the test system is BDF1 mice, B16 melanoma ip, median survival T/C. In words: NCI In Vivo Anticancer Drug Screen. Data for tumor model B16 Melanoma (intraperitoneal) in B6D2F1 (BDF1) mice. To be noted: endpoint: median survival time, higher = longer survival. Summed up: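 Compounds were tested in mice carrying transplantable tumors. Survival or tumor size was recorded, and each value is the treated-group measurement (T) divided by that of the vehicle-treated control group (C).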

Where [1] appears, read: dose: 12.5 mg/kg/injection, schedule: Q01DX009 (ip), vehicle: saline with Tween-80.
[2] abbreviates: dose: 25.0 mg/kg/injection, schedule: Q01DX009 (ip), vehicle: saline with Tween-80.
The mark [3] stands for this setting: dose: 50.0 mg/kg/injection, schedule: Q01DX009 (ip), vehicle: saline with Tween-80.
Where [4] appears, read: dose: 100.0 mg/kg/injection, schedule: Q01DX009 (ip), vehicle: saline with Tween-80.
Setting [5] is: dose: 200.0 mg/kg/injection, schedule: Q01DX009 (ip), vehicle: saline with Tween-80.
Setting [6] is: dose: 12.5 mg/kg/injection, schedule: Q01DX009 (ip), vehicle: Klucel (hydroxypropylcellulose) (HPC).
The mark [7] stands for this setting: dose: 25.0 mg/kg/injection, schedule: Q01DX009 (ip), vehicle: Klucel (hydroxypropylcellulose) (HPC).
Setting [8] is: dose: 50.0 mg/kg/injection, schedule: Q01DX009 (ip), vehicle: Klucel (hydroxypropylcellulose) (HPC).
Where [9] appears, read: dose: 100.0 mg/kg/injection, schedule: Q01DX009 (ip), vehicle: Klucel (hydroxypropylcellulose) (HPC).
Where [10] appears, read: dose: 400.0 mg/kg/injection, schedule: Q01DX009 (ip), vehicle: saline with Tween-80.
Setting [11] is: dose: 25.0 mg/kg/injection, schedule: Q01DX009 (ip), vehicle: saline.

Turning to `FC(F)(F)c1nc2nc(Cl)c(Cl)nc2[nH]1`, the T/C under setting [1] is 116 % of control, the T/C under setting [2] is 114 % of control and the T/C under setting [3] is 98 % of control.

`Cc1ccc(Cl)cc1NS(=O)(=O)c1cccc([N+](=O)[O-])c1`: the T/C runs as follows: under setting [3], 111 % of control; under setting [4], 107 % of control; under setting [5], 100 % of control.

For `O=S1(=O)C=CCCC=C1`, the T/C by setting is: (dose: 6.25 mg/kg/injection, schedule: Q01DX009 (ip), vehicle: Klucel (hydroxypropylcellulose) (HPC)) 102 % of control; under setting [6], 98 % of control; under setting [7], 95 % of control; under setting [8], 98 % of control and 102 % of control.

Consider `CC(=O)CC(=O)NC1CCCC1`, for which the T/C is 96 % of control under setting [9]; 96 % of control (dose: 200.0 mg/kg/injection, schedule: Q01DX009 (ip), vehicle: Klucel (hydroxypropylcellulose) (HPC)); 107 % of control (dose: 400.0 mg/kg/injection, schedule: Q01DX009 (ip), vehicle: Klucel (hydroxypropylcellulose) (HPC)).

Regarding `Cc1ccc2ccccc2c1OC(C)C(=O)O` (stereo not given), the T/C reads like this: (dose: 25.0 mg/kg/injection, schedule: Q04DX003 (ip), vehicle: alcohol) 100 % of control; (dose: 50.0 mg/kg/injection, schedule: Q01DX009 (ip), vehicle: alcohol) 112 % of control; (dose: 50.0 mg/kg/injection, schedule: Q04DX003 (ip), vehicle: alcohol) 100 % of control; (dose: 100.0 mg/kg/injection, schedule: Q01DX009 (ip), vehicle: alcohol) 109 % of control; (dose: 100.0 mg/kg/injection, schedule: Q04DX003 (ip), vehicle: alcohol) 88 % of control.

With `CC(=O)Oc1ccc[nH]c1=O`, the T/C runs as follows: (dose: 75.0 mg/kg/injection, schedule: Q01DX009 (ip), vehicle: saline) 91 % of control and 94 % of control; (dose: 150.0 mg/kg/injection, schedule: Q01DX009 (ip), vehicle: saline) 91 % of control; under setting [5], 105 % of control; (dose: 200.0 mg/kg/injection, schedule: Q01DX009 (ip), vehicle: saline) 90 % of control and 95 % of control; (dose: 300.0 mg/kg/injection, schedule: Q01DX009 (ip), vehicle: saline) 104 % of control and 105 % of control; under setting [10], 105 % of control. Moreover, where the note is “dose: 600.0 mg/kg/injection, schedule: Q01DX009 (ip), vehicle: saline with Tween-80”, the T/C was 106 % of control.

As to `O=C(NCCCCCCCCCCNC(=O)N1CC1)N1CC1`, the T/C was 115 % of control (dose: 0.75 mg/kg/injection, schedule: Q01DX009 (ip), vehicle: saline) and 154 % of control (dose: 3.0 mg/kg/injection, schedule: Q01DX009 (ip), vehicle: saline).

As for `COC1=C(OC)C(=O)C(C/C=C(\C)CC/C=C(\C)CC/C=C(\C)CC/C=C(\C)CC/C=C(\C)CC/C=C(\C)CC/C=C(\C)CC/C=C(\C)CCC=C(C)C)=C(C)C1=O`, the T/C (dose: 10.0 mg/kg/injection, schedule: Q01DX025 (ip), vehicle: saline with Tween-80) is 81 % of control; the T/C (dose: 20.0 mg/kg/injection, schedule: Q01DX025 (ip), vehicle: saline with Tween-80) is 102 % of control; the T/C (dose: 40.0 mg/kg/injection, schedule: Q01DX025 (ip), vehicle: saline with Tween-80) is 100 % of control.

For `COC(=O)Nc1cccc(-c2nc3ccc(NC(=O)OC)cc3c(=O)n2-c2ccccc2)c1`, the T/C is 107 % of control (dose: 8.0 mg/kg/injection, schedule: Q01DX009 (ip), vehicle: Klucel (hydroxypropylcellulose) (HPC)); 112 % of control (dose: 8.0 mg/kg/injection, schedule: Q01DX009 (ip), vehicle: saline); 107 % of control (dose: 16.0 mg/kg/injection, schedule: Q01DX009 (ip), vehicle: Klucel (hydroxypropylcellulose) (HPC)); 112 % of control (dose: 50.0 mg/kg/injection, schedule: Q04DX005 (ip), vehicle: other); 117 % of control (dose: 50.0 mg/kg/injection, schedule: Q04DX006 (ip), vehicle: saline); 123 % of control (dose: 64.0 mg/kg/injection, schedule: Q01DX009 (ip), vehicle: saline). Further, the T/C is 120 % of control (dose: 100.0 mg/kg/injection, schedule: Q04DX005 (ip), vehicle: other); 99 % of control (dose: 100.0 mg/kg/injection, schedule: Q04DX005 (oral), vehicle: saline); 97 % of control (dose: 200.0 mg/kg/injection, schedule: Q04DX005 (oral), vehicle: saline); 114 % of control (dose: 400.0 mg/kg/injection, schedule: Q04DX005 (oral), vehicle: saline).

In the case of `COC(=O)C(CSCc1ccccc1)NC(=O)OCc1ccccc1` (stereo not given), under setting [8], the T/C is 87 % of control.

For the compound `O=C1OC(=O)C2C3C=CC(C3=C(c3ccccc3)c3ccccc3)C12` (stereo not given), the T/C (dose: 0.78 mg/kg/injection, schedule: Q04DX009 (ip), vehicle: Klucel (hydroxypropylcellulose) (HPC)) was 115 % of control; the T/C (dose: 1.56 mg/kg/injection, schedule: Q04DX009 (ip), vehicle: Klucel (hydroxypropylcellulose) (HPC)) is 121 % of control; the T/C (dose: 3.13 mg/kg/injection, schedule: Q04DX009 (ip), vehicle: Klucel (hydroxypropylcellulose) (HPC)) is 106 % of control.

Take `CN(C)S(=O)(=O)C(C)(C)c1ccccc1`: the T/C reads like this: under setting [3], 90 % of control; under setting [4], 93 % of control; under setting [5], 95 % of control.

For the compound `CN(C)CCC1CCCCN1` (stereo not given), the T/C is, setting by setting: under setting [11], 112 % of control; (dose: 50.0 mg/kg/injection, schedule: Q01DX009 (ip), vehicle: saline) 100 % of control; (dose: 100.0 mg/kg/injection, schedule: Q01DX009 (ip), vehicle: saline) 100 % of control.

In the case of `Cc1ccc(N=NN(C)C)cc1`, the T/C reads like this: under setting [1], 113 % of control; under setting [2], 115 % of control; under setting [3], 106 % of control.

For the compound `NC(Cc1ccc(Cl)cc1)C(=O)O` (stereo not given), the T/C by setting is: under setting [4], 123 % of control; under setting [5], 115 % of control; under setting [10], 104 % of control.

Turning to `CN1CCC(C=C2c3ccccc3CCc3ccccc32)C1` (stereo not given), the T/C by setting is: (dose: 1.56 mg/kg/injection, schedule: Q01DX009 (ip), vehicle: saline) 102 % of control; (dose: 3.12 mg/kg/injection, schedule: Q01DX009 (ip), vehicle: saline) 100 % of control; under setting [11], 102 % of control.

Regarding `COc1ccc(N=NNc2ccc(OC)cc2)cc1`, the T/C is, setting by setting: (dose: 5.0 mg/kg/injection, schedule: Q01DX009 (ip), vehicle: saline with Tween-80) 106 % of control; (dose: 6.25 mg/kg/injection, schedule: Q01DX009 (ip), vehicle: saline with Tween-80) 90 % of control and 94 % of control; (dose: 6.25 mg/kg/injection, schedule: Q04DX003 (ip), vehicle: saline with Tween-80) 97 % of control and 105 % of control; (dose: 10.0 mg/kg/injection, schedule: Q01DX009 (ip), vehicle: saline with Tween-80) 109 % of control; under setting [1], 86 % of control and 94 % of control; (dose: 12.5 mg/kg/injection, schedule: Q04DX003 (ip), vehicle: saline with Tween-80) 107 % of control and 113 % of control. Moreover, the T/C (dose: 16.5 mg/kg/injection, schedule: Q04DX003 (ip), vehicle: saline with Tween-80) was 95 % of control; the T/C (dose: 20.0 mg/kg/injection, schedule: Q01DX009 (ip), vehicle: saline with Tween-80) is 109 % of control; the T/C under setting [2] was 93 % of control and 94 % of control; the T/C (dose: 25.0 mg/kg/injection, schedule: Q04DX003 (ip), vehicle: saline with Tween-80) is 100 % of control and 107 % of control; the T/C (dose: 37.5 mg/kg/injection, schedule: Q04DX003 (ip), vehicle: saline with Tween-80) was 100 % of control; the T/C (dose: 40.0 mg/kg/injection, schedule: Q01DX009 (ip), vehicle: saline with Tween-80) was 112 % of control. Besides, the T/C by setting is: under setting [3], 97 % of control; (dose: 50.0 mg/kg/injection, schedule: Q04DX003 (ip), vehicle: saline with Tween-80) 110 % of control.

For the compound `CCOC(=O)CCOc1ccc(Cl)cc1`, the T/C reads like this: under setting [4], 101 % of control; under setting [5], 102 % of control; under setting [10], 96 % of control.

`C=C1N(C)c2ccc(Cl)cc2C1(C)C`: the T/C under setting [6] is 90 % of control, the T/C under setting [7] is 90 % of control, the T/C under setting [8] was 88 % of control and the T/C under setting [9] is 87 % of control.
